Laboratory results from patent US20050256092A1, “Antipsoriatic agent” (priority 2002, published 2005).
Where two headings read alike, the source gives them in different places.

How the values were obtained:
[1] = tested on: adult-human-derived keratinocytes; assay: suppression of proliferation of cultured human keratinocytes ([3H]thymidine uptake); type: cell-based; details: for IC50: [3H]thymidine uptake, cultured 3 days + 1 day, percentage of control, read-out: IC50 (mol/L) value, suppression of human keratinocyte proliferation
Method: The effect of suppressing the proliferation of cultured human keratinocytes by 2β-(3-hydroxypropyloxy)-1α,25-dihydroxyvitamin D3 (hereinafter referred to as “ED-71”) was investigated.
KGM-2 culture medium was added to each well of a 96-well plate (COSTAR 3595), and adult-human-derived keratinocytes (Clonetics) were seeded at a cell count of 1×10^3/well. Then, active vitamin D3 (1α,25-dihydroxyvitamin D3, produced by Solvay Pharmaceuticals) or ED-71 (produced by Chugai Seiyaku) was added to each well in a final concentration of 1×10^−10 mol/L, 1×10^−9 mol/L, 1×10^−8 mol/L, or 1×10^−7 mol/L. The cells were cultured in the KGM-2 culture medium at a cell concentration of 1×10^3/200 μl/well for 3 days at 37° C. in an atmosphere of 5% CO2 and 95% air. [^3H]thymidine was added in an amount of 7.4 kBq/well, and the cells were further cultured for 1 day. The culture medium was removed, and the cells were stripped off using 0.05% trypsin/EDTA (GIBCO BRL), and the amount of [^3H]thymidine taken up by the cells was measured with a liquid scintillation counter (1450 MICROBETA, Wallac). The cells cultured and treated in the same manner as described above, except for the addition of the active vitamin D3 or ED-71, were used as a control.
In FIG. 1, the [^3H]thymidine uptake into the cells treated with each drug is expressed as a percentage of the [^3H]thymidine uptake into the control cells.

[2] = tested on: epidermis of hairless mice; assay: epidermis thickening in hairless mice, oral administration; type: in vivo; details: administered orally for 4 days, compared with active vitamin D3
Description: (§1) The effect of ED-71 administered percutaneously and orally was investigated using hairless mice.
(§2) Percutaneous administration of a vitamin D3 derivative in hairless mice was reported to cause hyperplasia of the epidermis (British Journal of Dermatology 1995; 132; 841-852).

[3] = tested on: epidermis of hairless mice; assay: epidermis thickening in hairless mice, percutaneous administration; type: in vivo; details: single percutaneous dose, compared with active vitamin D3
Description: as §1, §2

Row | Structure (SMILES) | human keratinocyte proliferation suppressing activity, relative value with respect to active vitamin D3 ([1]; (IC50 value of active vitamin D3)/(IC50 value of ED-71)) | IC50 ([1]; Homo sapiens, Keratinocyte) [nM] | thickening of the epidermis [2] | thickening of the epidermis [3] | IC50 [1] [nM]
1 | C=C1/C(=C\C=C2/CCC[C@@]3(C)C2CC[C@@H]3[C@H](C)CCCC(C)(C)O)C[C@@H](O)[C@@H](OCCCO)[C@@H]1O (stereo partly drawn) [ED-71, 2β-(3-hydroxypropyloxy)-1α,25-dihydroxyvitamin D3] | ≥ 305.23 | < 0.1 | thickened the epidermis in a lower dose than the dose of active vitamin D3 | thickened the epidermis in a lower dose than the dose of active vitamin D3 | –
2 | C=C1/C(=C\C=C2/CCC[C@]3(C)[C@@H]([C@H](C)CCCC(C)(C)O)CC[C@@H]23)C[C@@H](O)C[C@@H]1O [active vitamin D3, 1α,25-dihydroxyvitamin D3, reference compound] | – | – | – | – | 30.5
